This note sets out measurements from patent publication US20140329797A1, “SUBSTITUTED OXADIAZOLYL PYRIDINONES AND OXADIAZOLYL PYRIDAZINONES AS HIF INHIBITORS” (Bayer Intellectual Property GmbH, priority 2011, published 2014).

As usually defined, the IC50 is the point on the concentration scale where inhibition reaches its midpoint. Read a high IC50 as weaker potency.

The assay has as its system HCT 116 cells transfected with a luciferase reporter under the control of an HIF-responsive sequence. Description: HIF-luciferase assay. Type of assay: cell-based. Conditions: Homo sapiens; HCT 116 HIF-luciferase reporter cells, hypoxia chamber (1% O2), 24 h; in some cases means of up to four individual determinations. The protocol:
B-1. HIF-Luciferase Assay
HCT 116 cells were transfected in a stable manner with a plasmid which contained a luciferase reporter under the control of an HIF-responsive sequence. These cells were sown in microtitre plates [20000 cells/cavity in RPMI 1640 medium with 10% foetal calf serum (FCS) and 100 μg/ml of hygromycin]. Incubation was carried out overnight under standard conditions (5% CO2, 21% O2, 37° C., moistened). The following morning the cells were incubated with various concentrations of the test substances (0-10 μmol/l) in a hypoxia chamber (1% O2). After 24 h, Bright Glo reagent (Promega, Wisconsin, USA) was added in accordance with the manufacturer's instructions, and after 5 min the luminescence was measured. Cells which were incubated under normoxia served as background controls.
In general terms: A reporter such as luciferase makes a cellular process visible.
For the compound `CC(C)(c1ccc(-c2noc(-c3ccc(=O)n(Cc4cccc(C5(CO)CC5)c4)c3)n2)cc1)C(F)(F)F` [Example 44, 1-{3-[1-(Hydroxymethyl)cyclopropyl]benzyl}-5-{3-[4-(1,1,1-trifluoro-2-methylpropan-2-yl)phenyl]-1,2,4-oxadiazol-5-yl}pyridin-2(1H)-one], the IC50 came to 15 nM. The compound `N#CC1CCN(c2cc(Cn3cc(-c4nc(-c5ccc(OC(F)(F)F)cc5)no4)ccc3=O)ccn2)CC1` [Example 45, 1-(4-{[2-oxo-5-{3-[4-(trifluoromethoxy)phenyl]-1,2,4-oxadiazol-5-yl}pyridin-1(2H)-yl]methyl}pyridin-2-yl)piperidine-4-carbonitrile] displayed an IC50 of 5 nM. Turning to `CN1CCN(c2cc(Cn3cc(-c4nc(-c5ccc(SC(F)(F)F)cc5)no4)ccc3=O)ccn2)CC1` [Example 47, 1-{[2-(4-Methylpiperazin-1-yl)pyridin-4-yl]methyl}-5-(3-{4-[(trifluoromethyl)sulphanyl]phenyl}-1,2,4-oxadiazol-5-yl)pyridin-2(1H)-one], half-maximal inhibition (IC50) required 40 nM. Take `CN1CCN(c2cc(Cn3cc(-c4nc(-c5ccc(C6(C(F)(F)F)CC6)cc5)no4)ccc3=O)ccn2)CC1` [Example 48, 1-{[2-(4-Methylpiperazin-1-yl)pyridin-4-yl]methyl}-5-(3-{4-[1-(trifluoromethyl)cyclopropyl]phenyl}-1,2,4-oxadiazol-5-yl)pyridin-2(1H)-one]: the IC50 turned out to be 50 nM. Turning to `O=c1ccc(-c2nc(-c3ccc(OC(F)(F)F)cc3)no2)cn1Cc1ccnc(N2CCN(CC(F)(F)F)CC2)c1` [Example 49, 1-({2-[4-(2,2,2-Trifluoroethyl)piperazin-1-yl]pyridin-4-yl}methyl)-5-{3-[4-(trifluoromethoxy)phenyl]-1,2,4-oxadiazol-5-yl}pyridin-2(1H)-one], the IC50 came to 3 nM.

For the compound `O=c1ccc(-c2nc(-c3ccc(OC(F)(F)F)cc3)no2)cn1Cc1ccnc(N2CCN(C3CC3)CC2)c1` [Example 51, 1-{[2-(4-Cyclopropylpiperazin-1-yl)pyridin-4-yl]methyl}-5-{3-[4-(trifluoromethoxy)phenyl]-1,2,4-oxadiazol-5-yl}pyridin-2(1H)-one], inhibition was half-maximal at 2 nM (IC50). Compound `O=c1ccc(-c2nc(-c3ccc(SC(F)(F)F)cc3)no2)cn1Cc1ccnc(N2CCN(C3CC3)CC2)c1` [Example 52, 1-{[2-(4-Cyclopropylpiperazin-1-yl)pyridin-4-yl]methyl}-5-(3-{4-[(trifluoromethyl)sulphanyl]phenyl}-1,2,4-oxadiazol-5-yl)pyridin-2(1H)-one] had an IC50 of 5 nM. As to `CC(C)(c1ccc(-c2noc(-c3ccc(=O)n(Cc4ccnc(N5CCN(C6CC6)CC5)c4)c3)n2)cc1)C(F)(F)F` [Example 53, 1-{[2-(4-Cyclopropylpiperazin-1-yl)pyridin-4-yl]methyl}-5-{3-[4-(1,1,1-trifluoro-2-methylpropan-2-yl)phenyl]-1,2,4-oxadiazol-5-yl}pyridin-2(1H)-one], the IC50 was determined as 4 nM. Then `O=c1ccc(-c2nc(-c3ccc(C4(C(F)(F)F)CC4)cc3)no2)cn1Cc1ccnc(N2CCN(C3CC3)CC2)c1` [Example 54, 1-{[2-(4-Cyclopropylpiperazin-1-yl)pyridin-4-yl]methyl}-5-(3-{4-[1-(trifluoromethyl)cyclopropyl]phenyl}-1,2,4-oxadiazol-5-yl)pyridin-2(1H)-one], with 4 nM; and `CC(=O)N1CCN(c2cc(Cn3cc(-c4nc(-c5ccc(SC(F)(F)F)cc5)no4)ccc3=O)ccn2)CC1` [Example 55, 1-{[2-(4-Acetylpiperazin-1-yl)pyridin-4-yl]methyl}-5-(3-{4-[(trifluoromethyl)sulphanyl]phenyl}-1,2,4-oxadiazol-5-yl)pyridin-2(1H)-one], with 20 nM. `CNc1ccc(Cn2cc(-c3nc(-c4ccc(OC(F)(F)F)cc4)no3)ccc2=O)cn1` [Example 59, 1-{[6-(Methylamino)pyridin-3-yl]methyl}-5-{3-[4-(trifluoromethoxy)phenyl]-1,2,4-oxadiazol-5-yl}pyridin-2(1H)-one] displayed an IC50 of 12.5 nM.
